{"source": "patent US9149038B2", "about": "“4-amino-6-(heterocyclic)picolinates and 6-amino-2-(heterocyclic)pyrimidine-4-carboxylates and their use as herbicides” (Dow AgroSciences LLC, priority 2013, dated 2015)", "key": {"[1]": {"system": "Key Broadleaf Weed and Crop Species", "assay": "Post-Emergent Test II: postemergent herbicidal activity, visual rating after 14 d (Table 7)", "format": "in vivo", "settings": "post-emergence, 336 h; for pest or weed control at 35 g/ha: 35 g ai/ha; for pest or weed control at 70 g/ha: 70 g ai/ha; for pest or weed control at 140 g/ha: 140 g ai/ha", "summary_of_the_method": "(§1)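 Post-emergence foliar spray, 187 L/ha, first/second true leaf stage plants in potting mix (pH 6.0-6.8). Rates: top rate and 2-fold serial dilutions to 1/16×. Solvent-blank controls. Readout: visual % kill at 14 d.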"}, "[2]": {"system": "Key Grass and Sedge Weeds as well as Grass Crops", "assay": "Post-Emergent Test II: postemergent herbicidal activity, visual rating after 14 d (Table 8)", "format": "in vivo", "settings": "post-emergence, 336 h; for pest or weed control at 35 g/ha: 35 g ai/ha; for pest or weed control at 70 g/ha: 70 g ai/ha; for pest or weed control at 140 g/ha: 140 g ai/ha", "summary_of_the_method": "as §1"}, "[3]": {"settings": "ABUTH: velvetleaf (Abutilon theophrasti), read-out: Visual Growth Reduction (%) 14 Days After Application ABUTH"}, "[4]": {"settings": "AMARE: redroot pigweed (Amaranthus retroflexus), read-out: Visual Growth Reduction (%) 14 Days After Application AMARE"}, "[5]": {"settings": "BRSNN: oilseed rape, canola (Brassica napus), read-out: Visual Growth Reduction (%) 14 Days After Application BRSNN"}, "[6]": {"settings": "CHEAL: lambsquarters (Chenopodium album), read-out: Visual Growth Reduction (%) 14 Days After Application CHEAL"}, "[7]": {"settings": "EPHHL: wild poinsettia (Euphorbia heterophylla), read-out: Visual Growth Reduction (%) 14 Days After Application EPHHL"}, "[8]": {"settings": "HELAN: sunflower (Helianthus annuus), read-out: Visual Growth Reduction (%) 14 Days After Application HELAN"}, "[9]": {"settings": "barnyardgrass (Echinochloa crus-galli), read-out: Visual Growth Reduction (%) 14 Days After Application, ECHCG"}, "[10]": {"settings": "giant foxtail (Setaria faberi), read-out: Visual Growth Reduction (%) 14 Days After Application, SETFA"}, "[11]": {"settings": "maize, corn (Zea mays), read-out: Visual Growth Reduction (%) 14 Days After Application, ZEAMX"}, "[12]": {"settings": "rice (Oryza sativa), read-out: Visual Growth Reduction (%) 14 Days After Application, ORYSA"}, "[13]": {"settings": "wheat, spring (Triticum aestivum), read-out: Visual Growth Reduction (%) 14 Days After Application, TRZAS"}, "[14]": {"settings": "yellow nutsedge (Cyperus esculentus), read-out: Visual Growth Reduction (%) 14 Days After Application, CYPES"}}, "note": "Read-outs that look alike come from different tables or passages of the source.", "data": [{"smiles": "Nc1c(F)c(-c2ccc3c(c2)COC3)nc(C(=O)O)c1Cl", "note": "[Compound 104]", "values": [{"measurement": "pest or weed control at 35 g/ha", "setting": "[1]; [3]", "value": "0 to 29", "unit": "%"}, {"measurement": "pest or weed control at 70 g/ha", "setting": "[1]; [3]", "value": "0 to 29", "unit": "%"}, {"measurement": "pest or weed control at 140 g/ha", "setting": "[1]; [3]", "value": "0 to 29", "unit": "%"}, {"measurement": "pest or weed control at 35 g/ha", "setting": "[1]; [4]", "value": "0 to 29", "unit": "%"}, {"measurement": "pest or weed control at 70 g/ha", "setting": "[1]; [4]", "value": "0 to 29", "unit": "%"}, {"measurement": "pest or weed control at 140 g/ha", "setting": "[1]; [4]", "value": "0 to 29", "unit": "%"}, {"measurement": "pest or weed control at 35 g/ha", "setting": "[1]; [5]", "value": "0 to 29", "unit": "%"}, {"measurement": "pest or weed control at 70 g/ha", "setting": "[1]; [5]", "value": "0 to 29", "unit": "%"}, {"measurement": "pest or weed control at 140 g/ha", "setting": "[1]; [5]", "value": "0 to 29", "unit": "%"}, {"measurement": "pest or weed control at 35 g/ha", "setting": "[1]; [6]", "value": "45 to 59", "unit": "%"}, {"measurement": "pest or weed control at 70 g/ha", "setting": "[1]; [6]", "value": "85 to 94", "unit": "%"}, {"measurement": "pest or weed control at 140 g/ha", "setting": "[1]; [6]", "value": "85 to 94", "unit": "%"}, {"measurement": "pest or weed control at 35 g/ha", "setting": "[1]; [7]", "value": "0 to 29", "unit": "%"}, {"measurement": "pest or weed control at 70 g/ha", "setting": "[1]; [7]", "value": "0 to 29", "unit": "%"}, {"measurement": "pest or weed control at 140 g/ha", "setting": "[1]; [7]", "value": "0 to 29", "unit": "%"}, {"measurement": "pest or weed control at 35 g/ha", "setting": "[1]; [8]", "value": "45 to 59", "unit": "%"}, {"measurement": "pest or weed control at 70 g/ha", "setting": "[1]; [8]", "value": "75 to 84", "unit": "%"}, {"measurement": "pest or weed control at 140 g/ha", "setting": "[1]; [8]", "value": "75 to 84", "unit": "%"}, {"measurement": "pest or weed control at 35 g/ha", "setting": "[2]; [9]", "value": "0 to 29", "unit": "%"}, {"measurement": "pest or weed control at 70 g/ha", "setting": "[2]; [9]", "value": "0 to 29", "unit": "%"}, {"measurement": "pest or weed control at 140 g/ha", "setting": "[2]; [9]", "value": "0 to 29", "unit": "%"}, {"measurement": "pest or weed control at 35 g/ha", "setting": "[2]; [10]", "value": "0 to 29", "unit": "%"}, {"measurement": "pest or weed control at 70 g/ha", "setting": "[2]; [10]", "value": "0 to 29", "unit": "%"}, {"measurement": "pest or weed control at 140 g/ha", "setting": "[2]; [10]", "value": "0 to 29", "unit": "%"}, {"measurement": "pest or weed control at 35 g/ha", "setting": "[2]; [11]", "value": "0 to 29", "unit": "%"}, {"measurement": "pest or weed control at 70 g/ha", "setting": "[2]; [11]", "value": "0 to 29", "unit": "%"}, {"measurement": "pest or weed control at 140 g/ha", "setting": "[2]; [11]", "value": "0 to 29", "unit": "%"}, {"measurement": "pest or weed control at 35 g/ha", "setting": "[2]; [12]", "value": "0 to 29", "unit": "%"}, {"measurement": "pest or weed control at 70 g/ha", "setting": "[2]; [12]", "value": "0 to 29", "unit": "%"}, {"measurement": "pest or weed control at 140 g/ha", "setting": "[2]; [12]", "value": "0 to 29", "unit": "%"}, {"measurement": "pest or weed control at 35 g/ha", "setting": "[2]; [13]", "value": "0 to 29", "unit": "%"}, {"measurement": "pest or weed control at 70 g/ha", "setting": "[2]; [13]", "value": "0 to 29", "unit": "%"}, {"measurement": "pest or weed control at 140 g/ha", "setting": "[2]; [13]", "value": "0 to 29", "unit": "%"}, {"measurement": "pest or weed control at 35 g/ha", "setting": "[2]; [14]", "value": "0 to 29", "unit": "%"}, {"measurement": "pest or weed control at 70 g/ha", "setting": "[2]; [14]", "value": "0 to 29", "unit": "%"}, {"measurement": "pest or weed control at 140 g/ha", "setting": "[2]; [14]", "value": "0 to 29", "unit": "%"}]}]}
